Several values for one entry are separate records, joined by “and”; a condition that tells them apart may be missing. Equal entries are not always repeated. Where two headings read alike, the source gives them in different places. Ends that are not written are not given here.
Tests used:
[1] = IVGTT duration of action assay (single SC injection before glucose); format: in vivo, rat; conditions: for Duration In The Rat IVGTT Assay: compared with 0601GIP3794 (794), dosed at −120 min
Procedure: To determine a duration of action using the IVGTT assay, the sample was injected SC as a single injection at one time point indicated (e.g., t=−240, −120, −60 or −30) prior to administration of glucose. IV glucose was given at t=0.

human GIP receptor = target: T1, human GIP receptor (Homo sapiens, UniProt P48546); assay: biochemical; format: binding
T1 construct: expressed in transfected cells; host or cells: HEK293 (HEK-GIPR), membranes
T1 sequence (P48546 22-466): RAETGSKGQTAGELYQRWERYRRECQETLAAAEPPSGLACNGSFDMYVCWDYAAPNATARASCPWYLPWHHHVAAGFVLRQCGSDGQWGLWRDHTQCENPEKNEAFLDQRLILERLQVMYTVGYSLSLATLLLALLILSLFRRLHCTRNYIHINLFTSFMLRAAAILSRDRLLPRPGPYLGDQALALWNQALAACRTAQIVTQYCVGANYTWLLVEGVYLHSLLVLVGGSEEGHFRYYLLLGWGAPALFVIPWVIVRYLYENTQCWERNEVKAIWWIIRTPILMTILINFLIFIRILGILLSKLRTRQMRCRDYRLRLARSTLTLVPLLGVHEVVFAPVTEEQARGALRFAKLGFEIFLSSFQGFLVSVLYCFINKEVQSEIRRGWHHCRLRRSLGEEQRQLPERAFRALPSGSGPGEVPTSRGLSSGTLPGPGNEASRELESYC

[2] = format: in vivo, NIH/Swiss mice; conditions: for Basal Gluc. Low. 80 nmol/Kg / Basal Glucose Lowering at Peptide Conc. of 80 nmol/kg: AUC240; for basal glucose lowering (% maximal decrease): mouse, in vivo
Procedure: (§1) In FIG. 3A, bars represent mean±sd, n=6-10. […] Gavage (1.5 g/kg) was given at t=0, Sample was taken at t=30 min. […] In FIG. 3B, points represent mean±sem, n=8-15.
Points represent mean±sem.

[3] = format: in vivo, NIH/Swiss mice
Procedure: as §1
Peptide was injected IP at t=−5 minutes into 4-hour fasted NIH/Swiss female mice. […] In FIG. 17 points represent mean+/−sem. […] Samples were taken at t=60, t=120 and t=180.

[4] = conscious rats, cited from earlier work
[5] = system: cardiomyocyte Gs-coupled receptors; assay: cAMP production in neonatal cardiomyocytes (HTRF, Gs-coupled receptor activation); format: cell-based, rat
Procedure: Activation of cardiomyocyte Gs- and Gi-coupled receptors was determined as a measure of cAMP production.
Neonatal cardiomyocytes were isolated using a commercially available system. […] Sprague Dawley neonatal rats (1-2 days old) were decapitated and the beating heart dissected out into digestion buffer (Cellutron D1 buffer) to dissociate cells. […] The resuspended cells incubated in buffer (Cellutron D3 buffer) for sufficient time to allow optimal dispersion and minimize the need for pipetting to break up clumps. Cells released from the first 2 digestions were discarded since a significant portion of these is red blood cells. Resuspended cells were filtered and allowed to pre-plate for 1 hour on plastic in an incubator in NS media (Cellutron, N.J.) in order to remove fibroblasts. After 1 hour of pre-plating, floating cells are removed and the flask rinsed with NS media. The floating cells and the cells in the rinse media were combined and counted. Residual red blood cells, which are smaller that the cardiac myocytes, were not counted.
At Day 1, the NS media was replaced with fresh NS media.
Dose response was determined.
For Gs assays the positive control was 10 uM forskolin and negative control was buffer. For Gi assays the positive control was buffer and the negative control was 10 uM forskolin.

[6] = Intravenous glucose tolerance test (IVGTT), i.v. infusion; format: in vivo, rat; conditions: for Standard IVGTT assay IV infusion (insulin AUC 0-30 min): IV infusion 100 pmol/min/kg; for Standard IVGTT assay IV infusion (insulin AUC 0-30 min) / IVGTT > = < Compared to 0601GIP3794: rat; for IVGTT > = < Compared to 0601GIP3794: in vivo
Procedure: In the typical IVGTT assays the test sample was administered by IV infusion. The IV infusion of sample was initiated at t=−30 min and continued through t=90. IV glucose was given at t=0. To determine a duration of action using the IVGTT assay, the sample was injected SC as a single injection at one time point indicated (e.g., t=−240, −120, −60 or −30) prior to administration of glucose. IV glucose was given at t=0.
As described, fed, isoflurane anesthetized HSD male rats were intubated and cannulated via femoral artery and vein and allowed to stabilize for 1 hour. […] At t=0, an i.v. bolus of 5.7 mmol/kg D-glucose was administered over 2 minutes. Samples for glucose measurement and insulin concentrations were taken at various time points before and after (0 to 90 minutes) glucose infusion.

[7] = for Mouse Food Intake, % basal: dose per compound (4.8 to 25 nmol/Kg)
[8] = normal men, infusion; cited from earlier work
[9] = read-out: (% Inh 10 nm, GIP-LF Assay)
[10] = read-out: GIP RBA (% Inh 10 nM)

CC[C@H](C)[C@H](NC(=O)[C@H](C)NC(=O)[C@H](CCCCN)NC(=O)[C@@H]1CCCN1C(=O)[C@H](CCCCN)NC(=O)[C@H](CCC(N)=O)NC(=O)[C@H](C)NC(=O)[C@H](CC(C)C)NC(=O)[C@H](CC(C)C)NC(=O)[C@H](Cc1c[nH]c2ccccc12)NC(=O)[C@H](CC(N)=O)NC(=O)[C@@H](NC(=O)[C@H](Cc1ccccc1)NC(=O)[C@H](CC(=O)O)NC(=O)[C@H](CCC(N)=O)NC(=O)[C@H](CCC(N)=O)NC(=O)[C@H](Cc1c[nH]cn1)NC(=O)[C@@H](NC(=O)[C@H](CCCCN)NC(=O)[C@H](CC(=O)O)NC(=O)[C@H](CCSC)NC(=O)[C@H](C)NC(=O)[C@@H](NC(=O)[C@H](CO)NC(=O)[C@H](Cc1ccc(O)cc1)NC(=O)[C@H](CC(=O)O)NC(=O)[C@H](CO)NC(=O)[C@@H](NC(=O)[C@H](Cc1ccccc1)NC(=O)[C@@H](NC(=O)CNC(=O)[C@H](CCC(=O)O)NC(=O)[C@@H](C)NC(=O)[C@@H](N)Cc1ccc(O)cc1)[C@@H](C)O)[C@@H](C)CC)[C@@H](C)CC)[C@@H](C)CC)C(C)C)C(=O)N[C@@H](CCCNC(=N)N)C(=O)N[C@@H](Cc1ccc(O)cc1)C(=O)N[C@@H](CO)C(N)=O [Compound 0601GIP4816]
Duration In The Rat IVGTT Assay [1]: <794@ −120 min
inhibition at 0.01 µM (human GIP receptor; [9]): 87.3%
inhibition at 0.01 µM (human GIP receptor; [10]): 87.3%
Basal Gluc. Low. 80 nmol/Kg [2]: −9%,
OGTT/GL (%) ([3]; 30 nmol/kg): −19%,

VIP: vasoactive intestinal peptide (HSDAVFTDNYTRLRKQMAVKKYLNSILN; ends and bridges not checked; UniProt P01282 125-152, looked up)
inhibition of gastric emptying at doses of 100 μg [4]: either weakly active or inactive

neuropeptide Y: peptide hormone of the pancreatic polypeptide family
inhibition of gastric emptying at doses of 100 μg [4]: either weakly active or inactive

HAEGTFTSDVSSYLEGQAAKEFIAWLVKGR [GLP-1]
cAMP activity in cardiomyocytes [5]: very low to no significant activity

insulin: peptide hormone
inhibition of gastric emptying at doses of 100 μg [4]: either weakly active or inactive

dAla2-GIP(1-42) acid form [Compound 0601GIP4042]
basal glucose lowering (% maximal decrease) [2]: −11%
insulinotropic response to an intravenous glucose challenge (IVGTT assay) ([6]; 100 pmol/kg/min infusion, rats): significant enhancement of the insulinotropic response

[dAla2]GIP-(1-30)-[Octylglycine 34] Exendin-4 (31-39) [Compound 0601GIP4252]
Basal Glucose Lowering at Peptide Conc. of 80 nmol/kg [2]: −7%, AUC240
Standard IVGTT assay IV infusion (insulin AUC 0-30 min) [6]: 218
IVGTT > = < Compared to 0601GIP3794 [6]: =

Human GIP
Duration of action in assay (insulin AUC 0-30 min) ([1]; SC inj T = −30 min): 57
Standard IVGTT assay IV infusion (insulin AUC 0-30 min) [6]: 226

KCNTATCATQRLANFLVRSSNNLGPVLPPTNVGSNTY [rat amylin]
EC(50) nmol/kg for inhibition of gastric emptying ([4]; subcutaneous 5 min before gavage): 0.23 nmol/kg
Mouse Food Intake, % basal ([7]; 30 min): −58 % basal
Mouse Food Intake, % basal ([7]; 60 min): −40 % basal
Mouse Food Intake, % basal ([7]; 120 min): −36.5 % basal
Mouse Food Intake, % basal ([7]; 180 min): −35.5 % basal
food intake ([7]; mouse, in vivo, ip): significant decrease in food intake within 30 min

BNP: brain natriuretic peptide
increase in sodium excretion [8]: 2 fold
reduction in plasma renin, angiotensin II and aldosterone secretion [8]: 50%

[dAla2, Leu14, beta-Ala31, beta-Ala32] GIP-(1-32)-Exendin-4 (31-39) [Compound 0601GIP4179]
Basal Glucose Lowering at Peptide Conc. of 80 nmol/kg [2]: −17%, AUC240
OGTT/GL (%) ([3]; 30 nmol/kg): −24 30 nmol/kg, %
OGTT/GL (%) ([3]; 350 nmol/kg): −23 350 nmol/kg %
IVGTT > = < Compared to 0601GIP3794 [6]: =

octylglycine-GIP(1-30)-Exendin-4-(31-39) [Compound 0601GIP4178]
Basal Glucose Lowering at Peptide Conc. of 80 nmol/kg [2]: −13%, AUC240
basal glucose lowering (% maximal decrease) [2]: −20%
OGTT/GL (%) ([3]; 350 nmol/kg): −20%
OGTT response ([3]; mouse, in vivo): −20%
insulin levels prior to the glucose challenge ([6]; 100 pmol/kg/min infusion, rats): significant rise in insulin levels
insulinotropic response to an intravenous glucose challenge (IVGTT assay) ([6]; 100 pmol/kg/min infusion, rats): diminished insulinotropic response
IVGTT > = < Compared to 0601GIP3794 [6]: <

HSDGIFTDSYSRYRKQMAVKKYLAAVLGKRYKQRVKNK-NH2 [PACAP38]
inhibition of gastric emptying at doses of 100 μg [4]: either weakly active or inactive

adrenomedullin: amylin family peptide hormone (YRQSMNNFQGLRSFGCRFGTCTVQKLAHQIYQFTDKDKDNVAPRSKISPQGY; ends and bridges not checked; cysteine pairing not given here; UniProt P35318 95-146, looked up)
inhibition of gastric emptying at doses of 100 μg [4]: either weakly active or inactive

glucagon: peptide hormone
inhibition of gastric emptying at doses of 100 μg [4]: either weakly active or inactive

CC[C@H](C)[C@H](NC(=O)[C@H](CO)NC(=O)[C@H](Cc1ccc(O)cc1)NC(=O)[C@H](CC(=O)O)NC(=O)[C@H](CO)NC(=O)[C@@H](NC(=O)[C@H](Cc1ccccc1)NC(=O)[C@@H](NC(=O)CNC(=O)[C@H](CCC(=O)O)NC(=O)[C@@H](C)NC(=O)[C@@H](N)Cc1ccc(O)cc1)[C@@H](C)O)[C@@H](C)CC)C(=O)N[C@@H](C)C(=O)N[C@@H](CCSC)C(=O)N[C@@H](CC(=O)O)C(=O)N[C@@H](CCCCN)C(=O)N[C@H](C(=O)N[C@@H](Cc1c[nH]cn1)C(=O)N[C@@H](CCC(N)=O)C(=O)N[C@@H](CCC(N)=O)C(=O)N[C@@H](CC(=O)O)C(=O)N[C@@H](Cc1ccccc1)C(=O)N[C@H](C(=O)N[C@@H](CC(N)=O)C(=O)N[C@@H](Cc1c[nH]c2ccccc12)C(=O)N[C@@H](CC(C)C)C(=O)N[C@@H](CC(C)C)C(=O)N[C@@H](C)C(=O)N[C@@H](CCC(N)=O)C(=O)N[C@@H](CCCCN)C(=O)N1CCC[C@H]1C(=O)N[C@@H](CCCCN)C(=O)N[C@@H](CCCCN)C(=O)N[C@@H](C)C(=O)N[C@@H](CCCNC(=N)N)C(=O)N[C@@H](Cc1ccc(O)cc1)C(=O)N[C@@H](CO)C(N)=O)C(C)C)[C@@H](C)CC [Compound 0601GIP4856]
Duration In The Rat IVGTT Assay [1]: <794@ −120 min
inhibition at 0.01 µM (human GIP receptor; [9]): 83.7%
Basal Gluc. Low. 80 nmol/Kg [2]: −3%,
OGTT/GL (%) ([3]; 30 nmol/kg): −29, %

[dAla2, Leu14, Ala18, glu21] GIP-(1-30)-Exendin-4 (31-39) [Compound 0601GIP4285]
Basal Gluc. Low. 80 nmol/Kg [2]: −2%,
Basal Glucose Lowering at Peptide Conc. of 80 nmol/kg [2]: −2%, AUC240
OGTT/GL (%) ([3]; 30 nmol/kg): −17% and −17 30 nmol/kg, %
OGTT/GL (%) ([3]; 350 nmol/kg): −10 350 nmol/kg %
IVGTT > = < Compared to 0601GIP3794 [6]: =

CC[C@H](C)[C@H](NC(=O)[C@H](CO)NC(=O)[C@H](Cc1ccc(O)cc1)NC(=O)[C@H](CC(=O)O)NC(=O)[C@H](CO)NC(=O)[C@@H](NC(=O)[C@H](Cc1ccccc1)NC(=O)[C@@H](NC(=O)CNC(=O)[C@H](CCC(=O)O)NC(=O)[C@@H](C)NC(=O)[C@@H](N)Cc1ccc(O)cc1)[C@@H](C)O)[C@@H](C)CC)C(=O)N[C@@H](C)C(=O)N[C@@H](CCSC)C(=O)N[C@@H](CC(=O)O)C(=O)N[C@@H](CCCCN)C(=O)N[C@H](C(=O)N[C@@H](Cc1c[nH]cn1)C(=O)N[C@@H](CCC(N)=O)C(=O)N[C@@H](CCC(N)=O)C(=O)N[C@@H](CC(=O)O)C(=O)N[C@@H](Cc1ccccc1)C(=O)N[C@H](C(=O)N[C@@H](CC(N)=O)C(=O)N[C@@H](Cc1c[nH]c2ccccc12)C(=O)N[C@@H](CC(C)C)C(=O)N[C@@H](CC(C)C)C(=O)N[C@@H](C)C(=O)N[C@@H](CCC(N)=O)C(=O)N[C@@H](CCCCN)C(=O)N1CCC[C@H]1C(=O)N[C@@H](CCCCN)C(=O)N[C@@H](CO)C(=O)N[C@@H](C)C(=O)N[C@@H](CCCNC(=N)N)C(=O)N1CCC[C@H]1C(=O)N[C@@H](CO)C(N)=O)C(C)C)[C@@H](C)CC [Compound 0601GIP4821]
Duration In The Rat IVGTT Assay [1]: <794@ −120 min
inhibition at 0.01 µM (human GIP receptor; [9]): 93.5%
inhibition at 0.01 µM (human GIP receptor; [10]): 93.5%
Basal Gluc. Low. 80 nmol/Kg [2]: −5%,
OGTT/GL (%) ([3]; 30 nmol/kg): −28, %
